Source: ChEMBL document CHEMBL1151668, “Molecular structure of terrecyclodiol: a derivative of the antifungal metabolite terrecyclic acid A from Aspergillus terreus” (1996)
The source made the active and inactive calls. The calls are words filed in the database; no cut-off is given here.

What was measured:
Phytophthora cinnamomi = assay: Growth inhibition of Phytophthora cinnamomi; type: functional, organism-based
P388 = assay: Antitumor activity against mouse P388 cells; type: functional

**Q.** With C=C1C(=O)C[C@@H]2[C@@H]3CC[C@@H](C(=O)O)[C@@]12CC3(C)C [TERRECYCLIC ACID A] as the compound, how does the Activity (Phytophthora cinnamomi) read?
**A.** Its Activity is “Active”.

**Q.** What about the Activity (P388) of the same compound?
**A.** The Activity was under 0.5 µg/mL.
